# Values of other authors as cited in patent US20140045904A1, “NIACIN FORMULATIONS AND METHODS WITH REDUCED FLUSHING SIDE EFFECT” (priority 2010, published 2014).
# Key:
# niacin-induced flushing = conditions: rofecoxib: single dose of 500 mg immediate-release niacin; laropiprant: clinical trials; aspirin: oral niacin
# rat macrophages = conditions: dual inhibitor of COX-1 and COX-2
# prostacyclin (PGI-2) = conditions: ingestion of oral niacin
# HDL cholesterol = conditions: low doses of niacin (300-1,000 mg/day)
# PGD-2 = conditions: niacin given orally (500 mg)
# COX-2 = COX-2 (Homo sapiens, UniProt P35354); conditions: while sparing COX-1
# Sequence of COX-2 (P35354 18-604): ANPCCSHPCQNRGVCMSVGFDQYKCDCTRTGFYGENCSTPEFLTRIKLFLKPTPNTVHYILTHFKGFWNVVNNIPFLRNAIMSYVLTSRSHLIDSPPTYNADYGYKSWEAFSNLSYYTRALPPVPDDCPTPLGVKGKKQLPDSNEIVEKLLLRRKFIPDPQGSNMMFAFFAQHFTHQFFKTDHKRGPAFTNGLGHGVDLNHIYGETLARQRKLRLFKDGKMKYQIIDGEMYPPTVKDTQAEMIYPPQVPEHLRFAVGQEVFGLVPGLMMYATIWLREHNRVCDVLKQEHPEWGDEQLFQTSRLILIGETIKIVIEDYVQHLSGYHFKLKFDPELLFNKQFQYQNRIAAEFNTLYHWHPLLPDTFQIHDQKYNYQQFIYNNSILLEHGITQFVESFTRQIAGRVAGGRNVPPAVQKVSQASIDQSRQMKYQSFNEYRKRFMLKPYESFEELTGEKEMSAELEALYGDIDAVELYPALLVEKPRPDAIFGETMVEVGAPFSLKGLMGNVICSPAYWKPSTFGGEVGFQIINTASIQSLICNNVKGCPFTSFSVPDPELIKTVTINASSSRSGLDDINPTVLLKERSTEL
smiles,measurement,setting,value
CC(=O)Oc1ccccc1C(=O)O [aspirin],effect of pretreatment on flushing from niacin,niacin-induced flushing,can suppress the flush
COc1ccc2c(c1)c(CC(=O)O)c(C)n2C(=O)c1ccc(Cl)cc1 [indomethacin],endogenous production of PGE-2 and PGD-2,rat macrophages,suppressed
CS(=O)(=O)c1cc(F)cc2c3c(n(Cc4ccc(Cl)cc4)c12)[C@@H](CC(=O)O)CC3 [laropiprant],effect of pretreatment on flushing from niacin,niacin-induced flushing,"substantially reduced, but fell far short of eliminating"
"O=C(O)c1cccnc1 [niacin, pyridine-3-carboxylic acid]",increase in prostacyclin (PGI-2),prostacyclin (PGI-2),2 fold
same,major urinary metabolite of PGE-2 (PGE-M),prostacyclin (PGI-2),does not increase
same,raise of HDL cholesterol,HDL cholesterol,up to 45%
same,increase of levels of the major metabolite of PGD-2,PGD-2,400 to 800 fold
same,time to decline of PGD-2 metabolite to near normal levels,PGD-2,2 to 4 h
same,time to increase of PGD-2 metabolite after ingestion,PGD-2,12 to 45 min
CS(=O)(=O)c1ccc(C2=C(c3ccccc3)C(=O)OC2)cc1 [rofecoxib],inhibition of COX-2 in vivo,COX-2,about 90%
same,effect of pretreatment on flushing from niacin,niacin-induced flushing,did not result in a reduction of flushing
